From patent publication US12227512B2, “Benzimidazoles and methods of using same” (priority 2019, dated 2025)
Like-named read-outs stand apart in the source and are kept apart here.

How the values were obtained:
[1] = test system: Dengue virus 2 New Guinea C; experiment: In vitro antiviral screening, Visual (Virus yield reduction); conditions: Huh7; for SI90: Visual (Virus yield reduction)/Neutral Red (Toxicity); for EC90: Dengue virus, Visual (Virus yield reduction)
[2] = test system: cap-dependent and Myc 5'-UTR cap-independent translation; experiment: Dual luciferase Myc 5' UTR translation reporter in Huh 7.5 cells; type: cell-based; conditions: Renilla (5' cap) / firefly (Myc 5' UTR) luciferase
Source text: The dual luciferase plasmid construct described by Willis and co-workers was transfected into Huh 7.5 cells. The Renilla luciferase cistron is translated from a 5′ cap, then the Myc 5′ UTR is placed in front of firefly luciferase to evaluate cap-independent translation from the same mRNA. […] This assay is a proxy for c-Myc translation activity. See also Stoneley et al. (2000) Nucleic Acids Res. 28: 687-94.

[3] = Neutral Red (Toxicity) of the antiviral screening; conditions: human
[4] = test system: Hedgehog signaling (Gli transcription factors); experiment: Hedgehog pathway inhibition, cell-based reporter sensitive to Shh ligand; conditions: read-out: EC50, hedgehog inhibition potency
CML CD34+ cells = experiment: Colony-forming assay, Chronic Myeloid Leukemia; conditions: for CML CD34+ colony formation: 0 μM = 100
[5] = test system: Dengue virus 2 New Guinea C; experiment: In vitro antiviral screening, Neutral Red (Cytopathic effect); conditions: Huh7; for SI50: Neutral Red (Cytopathic effect/Toxicity); for EC50: Dengue virus, Neutral Red (Cytopathic effect)
c-Myc and n-Myc = experiment: Western blot for c-Myc and n-Myc in Huh7.5 cells; type: cell-based; conditions: 2 μM compound, Western blotting
Experimental: Referring to FIG. 8, the ability of Isis-11 (racemic) to inhibit c-Myc and n-Myc was evaluated. Huh7.5 cells were treated with 2 μM compound or no compound as a control. The cells were lysed and harvested at the indicated times. Western blotting was performed using antibodies as shown after serial stripping. […] YB-1 is known to be part of a positive feedback loop with Myc and is also affected by Myc inhibition.

[6] = Neutral Red (Toxicity) of the antiviral screening; conditions: African green monkey
[7] = test system: Raji (Burkitt Lymphoma cell line); experiment: Raji cell viability / proliferation; conditions: Homo sapiens, read-out: IC50, Raji cell proliferation
Zika MR766 [8] = experiment: In vitro antiviral screening, Visual (Virus yield reduction); conditions: Vero 76; for SI90: Assay No. 3, Visual (Virus yield reduction)/Neutral Red (Toxicity); for EC90: Zika virus
[9] = test system: Gli-luciferace activity in the SUFU-KO-light cells; experiment: SUFU-KO-Light assay, inhibition of Gli-luciferase activity; type: cell-based
Source text: IC50 SUFO-KO-Light values are for inhibition of Gli-luciferace activity in the SUFU-KO-light cells developed by the James Chen laboratory at Stanford University.

Zika MR766 [10] = experiment: In vitro antiviral screening, Neutral Red (Cytopathic effect); conditions: Vero 76; for SI50: Assay No. 3, Neutral Red (Cytopathic effect/Toxicity); for EC50: Zika virus
Gli-1 and c-Myc = experiment: Western blot of Gli-1 and c-Myc in SUFU-KO-Light cells; type: cell-based; conditions: 48 hours, immunoblotting
[11] = test system: Hedgehog signaling (Gli transcription factors); experiment: Hedgehog pathway inhibition, cell-based reporter derived from fibroblast SUFU knockouts; conditions: read-out: EC50, hedgehog inhibition potency
[12] = test system: Rift Valley Fever Virus (RVFV); conditions: reported value; cited from earlier work
MB002 cells = experiment: MTT assay, cell proliferation; type: cell-based; conditions: MB002, MTT, dose for Fa=0.5 inhibition (50%)
[13] = test system: SUFU-KO-Light cells expressing Gli-luciferase; experiment: Dose-effect curves, dual-Glo luciferase, Compusyn; type: cell-based; conditions: SUFU-KO-Light, Gli-luciferase, Fa=0.5
[14] = Huh-7, Control drug, Assay No. 1
[15] = Huh-7, Control drug, Assay No. 2
[16] = inhibition of Gli-luciferase activity, read-out: IC50 (μM) SUFU-KO-Light

Question: For `CN(C)CCCn1c(N)nc2ccc3c(c21)CC(CN(C)C)O3` (racemic) [Isis-11], which SI90 ([1]; Assay No. 1) is on record?
Answer: 2.6

Question: What about the SI90 ([1]; Assay No. 2) of the same compound?
Answer: 6.3

Question: What about the EC90 ([1]; Huh-7, Assay No. 1) of the same compound?
Answer: 2700 nM

Question: What about the EC90 ([1]; Huh-7, Assay No. 2) of the same compound?
Answer: 380 nM

Question: What about the “effect on cap-dependent and cap-independent translation” value [2] of the same compound?
Answer: inhibits both cap-dependent and cap-independent translation

Question: What about the CC50 ([3]; CC50, Assay No. 1, Neutral Red (Cytopathic effect/Toxicity) line) of the same compound?
Answer: 6900 nM

Question: And the CC50 ([3]; CC50, Assay No. 1, Neutral Red (Toxicity), line of the virus yield reduction assay)?
Answer: 6900 nM

Question: What about the CC50 ([3]; CC50, Assay No. 2, Neutral Red (Cytopathic effect/Toxicity) line) of the same compound?
Answer: 2400 nM

Question: And the CC50 ([3]; CC50, Assay No. 2, Neutral Red (Toxicity), line of the virus yield reduction assay)?
Answer: 2400 nM

Question: What about the EC50 [4] of the same compound?
Answer: ~100 nM

Question: What about the colony formation (CML CD34+ cells; 0.8 μM) of the same compound?
Answer: completely inhibited

Question: And the “CML CD34+ colony formation” value (CML CD34+ cells; 14-290, 0.1 μM)?
Answer: 91.81

Question: And the “CML CD34+ colony formation” value (CML CD34+ cells; 14-290, 0.2 μM)?
Answer: 19.40

Question: And the “CML CD34+ colony formation” value (CML CD34+ cells; 14-290, 0.4 μM)?
Answer: 12.50

Question: And the “CML CD34+ colony formation” value (CML CD34+ cells; 14-290, 0.8 μM)?
Answer: 0

Question: What about the “CML CD34+ colony formation” value (CML CD34+ cells; 14-290, 1.6 μM) of the same compound?
Answer: 0

Question: And the “CML CD34+ colony formation” value (CML CD34+ cells; 15-186, 0.1 μM)?
Answer: 87.06

Question: And the “CML CD34+ colony formation” value (CML CD34+ cells; 15-186, 0.2 μM)?
Answer: 52.10

Question: What about the “CML CD34+ colony formation” value (CML CD34+ cells; 15-186, 0.4 μM) of the same compound?
Answer: 38.81

Question: What about the “CML CD34+ colony formation” value (CML CD34+ cells; 15-186, 0.8 μM) of the same compound?
Answer: 0

Question: What about the “CML CD34+ colony formation” value (CML CD34+ cells; 15-186, 1.6 μM) of the same compound?
Answer: 0

Question: What about the “CML CD34+ colony formation” value (CML CD34+ cells; AVG, 0.1 μM) of the same compound?
Answer: 89.44

Question: What about the “CML CD34+ colony formation” value (CML CD34+ cells; AVG, 0.2 μM) of the same compound?
Answer: 35.75

Question: What about the “CML CD34+ colony formation” value (CML CD34+ cells; AVG, 0.4 μM) of the same compound?
Answer: 25.66

Question: What about the “CML CD34+ colony formation” value (CML CD34+ cells; AVG, 0.8 μM) of the same compound?
Answer: 0

Question: What about the “CML CD34+ colony formation” value (CML CD34+ cells; AVG, 1.6 μM) of the same compound?
Answer: 0

Question: What about the EC50 (CML CD34+ cells; read-out: EC50, CML CD34+ colony formation) of the same compound?
Answer: ~150 nM

Question: And the EC50 (CML CD34+ cells; read-out: EC50, inhibition of colony formation)?
Answer: ~150 nM

Question: And the SI50 ([5]; Assay No. 1)?
Answer: 3.8

Question: And the SI50 ([5]; Assay No. 2)?
Answer: 4.9

Question: And the EC50 ([5]; Huh-7, Assay No. 1)?
Answer: 1800 nM

Question: And the EC50 ([5]; Huh-7, Assay No. 2)?
Answer: 490 nM

Question: And the “c-Myc and n-Myc protein” value (c-Myc and n-Myc)?
Answer: inhibited at the protein level

Question: And the CC50 [6]?
Answer: 20000 nM

Question: What about the IC50 [7] of the same compound?
Answer: 500 nM

Question: What about the SI90 (Zika MR766 [8]) of the same compound?
Answer: 22

Question: What about the EC90 (Zika MR766 [8]) of the same compound?
Answer: 930 nM

Question: What about the IC50 ([9]; read-out: IC50 (μM) SUFU-KO-Light, inhibition of Gli-luciferase activity) of the same compound?
Answer: 0.2 µM

Question: And the SI50 (Zika MR766 [10])?
Answer: 23

Question: What about the EC50 (Zika MR766 [10]) of the same compound?
Answer: 880 nM

Question: And the “Gli-1 and c-Myc levels” value (Gli-1 and c-Myc)?
Answer: decrease both Gli-1 and c-Myc

Question: What about the EC50 [11] of the same compound?
Answer: ~100 nM

Question: With `Nc1ncnc2c([C@H]3N[C@@H](CO)[C@H](O)[C@@H]3O)c[nH]c12` [BCX4430] as the compound, how does the EC50 [12] read?
Answer: 41600 nM

Question: Which IC50 (MB002 cells; read-out: Dose Cis) does the source give for `N.N.[Cl][Pt][Cl]` [Cisplatin, reference compound] here?
Answer: 780 nM

Question: Which results are given for `O=c1cnn([C@@H]2O[C@H](CO)[C@@H](O)[C@H]2O)c(=O)[nH]1` [Compound 6-azauridine, 6-azauridine, reference compound]?
Answer: SI90 ([1]; Assay No. 1): >10; SI90 ([1]; Assay No. 2): 15; EC90 [1, 14]: 10 µg/mL; EC90 [1, 15]: 1.8 µg/mL; CC50 ([3]; Huh7 cells, CC50, Control drug, Assay No. 1, Neutral Red (Cytopathic effect/Toxicity) line): > 100 µg/mL; CC50 ([3]; Huh7 cells, CC50, Control drug, Assay No. 1, Neutral Red (Toxicity), line of the virus yield reduction assay): > 100 µg/mL; CC50 ([3]; Huh7 cells, CC50, Control drug, Assay No. 2, Neutral Red (Cytopathic effect/Toxicity) line): 27 µg/mL; CC50 ([3]; Huh7 cells, CC50, Control drug, Assay No. 2, Neutral Red (Toxicity), line of the virus yield reduction assay): 27 µg/mL; SI50 ([5]; Assay No. 1): >19; SI50 ([5]; Assay No. 2): 15; EC50 [5, 14]: 5.3 µg/mL; EC50 [5, 15]: 1.8 µg/mL; CC50 ([6]; Vero 76 cells): 26.5 µg/mL; SI90 (Zika MR766 [8]): 0; EC90 (Zika MR766 [8]): > 26.5 µg/mL; SI50 (Zika MR766 [10]): 40; EC50 (Zika MR766 [10]): 0.66 µg/mL

Question: For `CN(C)CC1COc2ccc3nc4n(c3c2C1)CC(CN(C)C)CN4` (stereo not drawn) [IBIS-560146], which IC50 [9, 16] is on record?
Answer: > 2 µM

Question: With `CC(C)n1nc(-c2ccc3oc(N)nc3c2)c2c(N)ncnc21` [Ink-128, reference compound] as the compound, how does the EC50 ([13]; read-out: EC50 as single agent) read?
Answer: 6 nM

Question: And the EC50 ([13]; unit from FIG. 15 legend, read-out: Dose Ink)?
Answer: 6.13 nM

Question: And the IC50 (MB002 cells; read-out: Dose Ink)?
Answer: 60 nM

Question: For `CN(C)CCCn1c(N)nc2ccc(OCCN(C)C)cc21` [Isis-4], which IC50 [9, 16] is on record?
Answer: 10 µM

Question: Which IC50 [9, 16] does the source give for `CN(C)CCCn1c(N)nc2ccc3c(c21)CC(CN(C)C)CO3` (stereo not drawn) [Isis-12] here?
Answer: 1.5 µM

Question: With `CN(C)CC1CNc2nc3ccc4c(c3n2C1)CC(CN(C)C)O4` (stereo not drawn) [Isis-075] as the compound, how does the IC50 [9, 16] read?
Answer: 0.36 µM

Question: With `Cc1sc2c(c1C)C(c1ccc(Cl)cc1)=N[C@@H](CC(=O)OC(C)(C)C)c1nnc(C)n1-2` [JQ1, reference compound] as the compound, how does the “Gli-1 and c-Myc levels” value (Gli-1 and c-Myc) read?
Answer: decrease both Gli-1 and c-Myc
